Assay results reported in PubChem BioAssay (NCI).
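All cell lines were grown in 96-well plates and treated with compound for 48 hours. TGI marks complete inhibition of growth.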

Columns and labels:
Test in all cases: inhibition of tumour cell growth, NCI panel, 48 h
U251 CNS = tested on: U251 CNS
MOLT-4 leukemia = tested on: MOLT-4 leukemia
HCT-15 colon = tested on: HCT-15 colon
IGROV1 ovarian = tested on: IGROV1 ovarian
SK-MEL-5 melanoma = tested on: SK-MEL-5 melanoma
HS 578T breast = tested on: HS 578T breast
MDA-MB-435 = tested on: MDA-MB-435
UACC-62 melanoma = tested on: UACC-62 melanoma
BT-549 breast = tested on: BT-549 breast
RXF 393 renal = tested on: RXF 393 renal
786-0 renal = tested on: 786-0 renal
SF-539 CNS = tested on: SF-539 CNS
HOP-62 NSCLC = tested on: HOP-62 NSCLC
PC-3 prostate = tested on: PC-3 prostate
OVCAR-5 ovarian = tested on: OVCAR-5 ovarian
NCI-H226 lung = tested on: NCI-H226 lung
T-47D breast = tested on: T-47D breast
MALME-3M melanoma = tested on: MALME-3M melanoma
SW-620 colon = tested on: SW-620 colon
SNB-19 CNS = tested on: SNB-19 CNS
MDA-MB-231 breast = tested on: MDA-MB-231 breast
ACHN renal = tested on: ACHN renal
OVCAR-8 ovarian = tested on: OVCAR-8 ovarian
HT29 colon = tested on: HT29 colon
SF-295 CNS = tested on: SF-295 CNS
HCT-116 colon = tested on: HCT-116 colon
HL-60(TB) leukemia = tested on: HL-60(TB) leukemia
A498 renal = tested on: A498 renal
UO-31 renal = tested on: UO-31 renal
M14 melanoma = tested on: M14 melanoma
HOP-92 NSCLC = tested on: HOP-92 NSCLC
NCI/ADR-RES ovarian = tested on: NCI/ADR-RES ovarian
MCF7 breast = tested on: MCF7 breast
TK-10 renal = tested on: TK-10 renal
CCRF-CEM leukemia = tested on: CCRF-CEM leukemia
EKVX NSCLC = tested on: EKVX NSCLC
OVCAR-4 ovarian = tested on: OVCAR-4 ovarian
UACC-257 melanoma = tested on: UACC-257 melanoma
OVCAR-3 ovarian = tested on: OVCAR-3 ovarian
LOX IMVI melanoma = tested on: LOX IMVI melanoma
HCC-2998 colon = tested on: HCC-2998 colon
A549 NSCLC = tested on: A549 NSCLC
SF-268 CNS = tested on: SF-268 CNS
SNB-75 CNS = tested on: SNB-75 CNS
SK-MEL-2 melanoma = tested on: SK-MEL-2 melanoma
SK-OV-3 ovarian = tested on: SK-OV-3 ovarian
COLO 205 colon = tested on: COLO 205 colon
K-562 leukemia = tested on: K-562 leukemia
SR leukemia = tested on: SR leukemia
CAKI-1 renal = tested on: CAKI-1 renal
NCI-H23 lung = tested on: NCI-H23 lung
RPMI-8226 leukemia = tested on: RPMI-8226 leukemia
KM12 colon = tested on: KM12 colon
SK-MEL-28 melanoma = tested on: SK-MEL-28 melanoma
DU-145 prostate = tested on: DU-145 prostate
SN12C renal = tested on: SN12C renal
MDA-N = tested on: MDA-N
NCI-H522 lung = tested on: NCI-H522 lung
NCI-H460 lung = tested on: NCI-H460 lung

Measured: TGI

CC(NNC(=O)c1ccncc1)c1ccccc1 (centres undefined)
not listed: NCI-H522 lung | NCI-H460 lung
> 100 µM: all other assays above

COC(=O)C1(Cc2ccccc2)Cc2ccccc2C1O (centres undefined)
not listed: SNB-19 CNS | M14 melanoma | HOP-92 NSCLC | SK-MEL-2 melanoma
> 100 µM: all other assays above

Cn1c(=O)c2c(nc3n2CCCC(=O)N3CCCCl)n(C)c1=O
not listed: SF-539 CNS | MALME-3M melanoma
> 100 µM: all other assays above
